From US10201558B2, “Compositions of selenoorganic compounds and methods of use thereof” (Alltech, Inc., priority 2014, dated 2019)
Entries after “also recorded” stand apart in the source; their conditions may differ.

Experiments:
[1] = system: gene transcripts in the brains of APP/PS1 mice; experiment: Microarray analysis of RNA expression in the brains of APP/PS1 mice; assay type: in vivo, mouse
[2] = system: Neprilysin; experiment: Western blot of Neprilysin in APP/PS1 mouse brains; assay type: in vivo; details: APP/PS1 mice, Compound C diet vs control diet
Protocol: Male APPΔNLh/ΔNLh×PS1P246 L/246 L knock-in model mice of Alzheimer's disease (abbreviated APP/PS1) were genotyped using standard primers for human APP (Amyloid Precursor Protein) and human PS1 (PSEN1). These APP/PS1 mice starting at the age of 6 months, were fed either a control diet containing normal levels of selenium (0.3 ppm from plant and inorganic selenium salt sources) or an experimental diet containing Compound C (the control diet to which was added 1 ppm Se from Compound C) for 6 months. […]
Frozen hemispheres of control- and Compound C-treated APP/PS1 mice were weighed and homogenized in PBS buffer, and then subsequently extracted with RIPA buffer (Sigma) containing complete proteinase and phosphatase inhibitors (Fisher Scientific). Protein levels in the samples were determined by micro-BCA protein analysis according to the manufacturer's protocol. […] Positive signals on the membrane blots were detected using Amersham's enhanced chemiluminescence Western Blotting Prime Detection reagents (GE healthcare Lifescience, Pittsburgh, Pa.). Images of these luminescence signals on the membrane blots were captured using the LI-COR Odyssey Fc Image system (Lincoln, Nebr.). Protein band densities in Western blots were determined using NIH Image J software, and then normalized by Actb levels in each samples to obtain the protein levels.

[3] = system: PPARG; experiment: Western blot of PPARG protein in IMR-32 cells; assay type: cell-based, human; details: 150 ppb, 6 hours
Protocol: IMR-32 cells were seeded on 6-well plates and then treated with control and various compounds for 6 hours and 24 hours, as described above. After treatments, cells were rinsed with ice-cold PBS and lysed in ice-cold RIPA buffer containing complete proteinase and phosphatase inhibitors (Thermo-Fisher Scientific, Waltham, Mass.) on ice for 30 min Cell lysates were collected using a cell scraper and transfer pipette and then centrifuged at 12000×g for 30 min at 4° C. to remove the DNA pellet and obtain the protein extract. Protein levels in the supernatant of these cell lysates were determined using the Pierce Micro-BCA protein assay kit (Thermo Scientific-Piece Biotechnology, Rockford, Ill.) according to the manufacturer's protocol […]
Positive signals on the membrane blots were detected using Amersham's enhanced chemiluminescence (ECL) Western Blotting Prime Detection reagents (GE healthcare Lifescience, Pittsburgh, Pa.). Images of these luminescence signals on the membrane blots were captured using the LI-COR Odyssey Fc Image system (Lincoln, Nebr.). […] Protein band densities in the Western blots were determined using the Li—COR Image studio software or NIH ImageJ software, and then normalized by ACTB protein level in each sample. […]

[4] = APP/PS1 mouse brain, Compound C diet vs control diet

C[Se]C[C@H]1O[C@@H](n2cnc3c(N)ncnc32)C(O)C1O (stereo in doubt) [Compound C, 5′-deoxy-5′-methylselenoadenosine]
number of genes with regulated expression in the brains ([1]; APP/PS1 mice, fold change of more than 1.2): 2217 genes
Fold Change, Akap5 [1, 4]: 1.589 fold
Fold Change, Apbb1 [1, 4]: −1.293 fold
Fold Change, App [1, 4]: −1.22 fold
Fold Change, Bcl2 [1, 4]: 1.246 fold
Fold Change, Camk2a [1, 4]: −1.67 fold
Fold Change, Cnr1 [1, 4]: −1.492 fold
Fold Change, Ddx5 [1, 4]: 1.26 fold
Fold Change, Dlx5 [1, 4]: 2.09 fold
Fold Change, Drd1 [1, 4]: 4.22 fold
Fold Change, Foxp2 [1, 4]: 2.52 fold
Fold Change, Gabra1 [1, 4]: −1.407 fold
Fold Change, Gabra2 [1, 4]: 1.275 fold
Fold Change, Gabrg1 [1, 4]: 1.375 fold
Fold Change, Gad2 [1, 4]: 1.69 fold
Fold Change, Gpr6 [1, 4]: 9.07 fold
Fold Change, Gpr88 [1, 4]: 6.47 fold
Fold Change, Grm4 [1, 4]: 1.418 fold
Fold Change, Htr2c [1, 4]: 1.797 fold
Fold Change, Isl1 [1, 4]: 11.32 fold
Fold Change, Mapk8 [1, 4]: −1.289 fold
Fold Change, Mapt [1, 4]: −1.21 fold
Fold Change, Meis2 [1, 4]: 2.04 fold
Fold Change, Nrxn1 [1, 4]: −1.444 fold
Fold Change, Pak1 [1, 4]: −1.201 fold
Fold Change, Pde10a [1, 4]: 2.91 fold
Fold Change, Penk [1, 4]: 4.068 fold
Fold Change, Prdx1 [1, 4]: 1.272 fold
Fold Change, Prkacb [1, 4]: −1.396 fold
Fold Change, Prkar2b [1, 4]: 1.439 fold
Fold Change, Prkcd [1, 4]: 1.813 fold
Fold Change, Prnp [1, 4]: −1.256 fold
Fold Change, Rarb [1, 4]: 4.03 fold
Fold Change, Rims1 [1, 4]: −1.459 fold
Fold Change, Scarb1 [1, 4]: 1.56 fold
Fold Change, Scp2 [1, 4]: 1.204 fold
Fold Change, Sez6 [1, 4]: 1.33 fold
Fold Change, Sod1 [1, 4]: 1.274 fold
Fold Change, Sorl1 [1, 4]: −1.41 fold
Fold Change, Sox2 [1, 4]: 1.274 fold
Fold Change, Tac1 [1, 4]: 3.36 fold
Fold Change, ZIC1 [1, 4]: 3.25 fold
Fold Change, Zic3 [1, 4]: 2.28 fold
Fold Change, Zic4 [1, 4]: 1.75 fold
Fold Change, Zic5 [1, 4]: 1.53 fold
Foxo 1, 3 and 4 mRNA levels [1, 4]: no significant change
Neprilysin protein levels in the brains [2]: increased; also recorded: elevated
PPARG protein expression [3]: markedly attenuated
